From patent US9301970B2, “Methods and compositions for treating trauma-hemorrhage using estrogen and derivatives thereof” (The UAB Research Foundation, priority 2006, dated 2016) come the findings set out here.

Test [1] has as its system TNF-α, IL-1β, IL-6, MCP-1. In words: SCI: quantitative real time PCR of cytokines and chemokines in spinal cord. The note with it: SCI mice, 24 h; dosing as E50; ICI 182,780 = co-administration with 17β-estradiol. For orientation: Quantitative PCR measures a nucleic acid by following its amplification.
Method: A longitudinal incision was made on the midline of the back, exposing the paravertebral muscles. These muscles were dissected away exposing T5-T8 vertebrae. […] Following surgery, 1 ml of saline was administered subcutaneously in order to replace the blood volume lost during surgery. During the surgery and recovery from anesthesia, the mice were placed on a warm heating pad and covered with a warm towel. The mice were singly housed in a temperature-controlled room at 27° C. and survival was measured over a period of 10 days. Food and water were provided to the mice ad libitum. During this time period, the animals' bladders were manually voided twice a day until the mice were able to regain normal bladder function. In all injured groups, the spinal cord was compressed for 1 min. Sham-injured animals were only subjected to laminectomy.
(§2) At different time points (see FIG. 30), the mice (n=10 from each group for each of the 3 time points) were sacrificed in order to evaluate the various parameters as described below.
Total cellular RNA was isolated from the aqueous phase then the levels of IL-α, TNF-α, MCP-1, IL-6 gene products were determined by Real Time PCR. The amount of each PCR product of gene target was normalized to Glyceraldehyde-3-phosphate dehydrogenase (GAPDH). The RNA extracted from spinal cord of individual mice was reverse trascripted into first strand cDNA with Random Hexamers and purified Avian Myeloblastosis Virus Reverse Transcriptase (Takara, Japan) in 20 ml of reaction after a DNAse treatment and stored at −80° C. until use. Primers pair for each cytokine was designed using the software Oligo (Molecular Biology Insights, Cascade, Colo., USA). The PCR reactions were performed using the following cycle conditions: a denaturation step for 15 minutes at 95° C. and 40 cycles of 30 seconds denaturation at 94° C., 30 seconds annealing (TNF-á 61° C., IL-6 54° C., IL-1β 61° C., MCP-1 54° C., GADPH 56° C.), 15 sec at 72° C. and 7 minutes of final extension at 72° C. The PCR products were visualized by electrophoresis on agarose gel 2% stained by ethidium bromide. The purified PCR products were cloned into a plasmid vector, transformed into the E. coli TOP 10 (Invitrogen) and purified with Turbo Kit (QBIOgene, Calif., USA). The recombinant plasmid was linearized upstream the target sequence using the restriction endonuclease PmeI (Fermentas, Canada). Tenfold dilutions of recombinant plasmid from 10^9 copies down to 10^1 copies were used as standards. The real time PCR assay was developed and evaluated on the Rotor-Gene 3000 system (Corbett Research, Australia). […] The signal was acquired on the FAM channel (multichannel machine) (source, 470 nm; detector, 510 nm; gain set to 5) with the fluorescence reading taken at the end of each 72° C. step. […]
Test [2] has as its system Nitrotyrosine, iNOS, MPO, COX-2, Bax and Bcl-2. Kind of test: SCI: immunohistochemical localization of nitrotyrosine, iNOS, MPO, COX-2, Bax and Bcl-2. To be noted: ICI 182,780 = co-administration with 17β-estradiol.
Method: A longitudinal incision was made on the midline of the back, exposing the paravertebral muscles. These muscles were dissected away exposing T5-T8 vertebrae. […] Following surgery, 1 ml of saline was administered subcutaneously in order to replace the blood volume lost during surgery. During the surgery and recovery from anesthesia, the mice were placed on a warm heating pad and covered with a warm towel. […] Food and water were provided to the mice ad libitum. During this time period, the animals' bladders were manually voided twice a day until the mice were able to regain normal bladder function. In all injured groups, the spinal cord was compressed for 1 min. Sham-injured animals were only subjected to laminectomy.
as §2
At 24 h after SCI, the tissues were fixed in 10% (w/v) PBS-buffered formaldehyde and 8-μm sections were prepared from paraffin embedded tissues. After deparaffinization, endogenous peroxidase was quenched with 0.3% (v/v) hydrogen peroxide in 60% (v/v) methanol for 30 min. The sections were permeabilized with 0.1% (w/v) Triton X-100 in PBS for 20 min. Non-specific adsorption was minimized by incubating the section in 2% (v/v) normal goat serum in PBS for 20 min. Endogenous biotin or avidin binding sites were blocked by sequential incubation for 15 min with biotin and avidin (DBA), respectively. Sections were incubated overnight with antinitrotyrosine rabbit polyclonal antibody (Upstate; 1:500 in PBS, v/v), with anti-iNOS polyclonal antibody rat (1:500 in PBS, v/v), anti-COX-2 monoclonal antibody (1:500 in PBS, v/v), anti-Bax rabbit polyclonal antibody (Santa Cruz Biotechnology, Inc., Santa Cruz, Calif.; 1:500 in PBS, v/v), or with anti-Bcl-2 polyclonal antibody rat (Santa Cruz Biotechnology, Inc., Santa Cruz, Calif.; 1:500 in PBS, v/v), or with anti-MPO polyclonal antibody (Santa Cruz Biotechnology, Inc., Santa Cruz, Calif.; 1:500 in PBS, v/v). Sections were washed with PBS, and incubated with secondary antibody. Specific labeling was detected with a biotin-conjugated goat anti-rabbit IgG and avidin-biotin peroxidase complex (DBA) and counterstained whith nuclear fast red. To verify the binding specificity for nitrotyrosine, iNOS, COX-2, Bax, and Bcl-2, some sections were also incubated with only the primary antibody (no secondary) or with only the secondary antibody (no primary).
In test [3] the test system is Bax and Bcl-2. In words: SCI: Western blot analysis for Bax and Bcl-2. Format: in vivo, mouse. To be noted: spinal cord, 24 hours after SCI; ICI 182,780 = co-administration with 17β-estradiol. On the procedure:
(§1) Mice were anaesthetized using chloral hydrate (400 mg/kg body weight) (Genovese 2006). A longitudinal incision was made on the midline of the back, exposing the paravertebral muscles. These muscles were dissected away exposing T5-T8 vertebrae. The spinal cord was exposed via a four-level T6-T7 laminectomy and SCI was produced by extradural compression using an aneurysm clip with a closing force of 24 g. Following surgery, 1 ml of saline was administered subcutaneously in order to replace the blood volume lost during surgery. During the surgery and recovery from anesthesia, the mice were placed on a warm heating pad and covered with a warm towel. The mice were singly housed in a temperature-controlled room at 27° C. and survival was measured over a period of 10 days. Food and water were provided to the mice ad libitum. […]
For Western blot analysis, 70 μg protein of lysates were mixed with gel loading buffer (50 mM Tris, 10% (w/v), sodium dodecyl sulphate (SDS), 10% (w/v) glycerol, 10% (v/v) 2- mercaptoethanol, 2 mg/ml bromophenol), boiled for 5 min, and subjected to SDSPAGE (12% polyacrylamide). […] The protein bands of Bax (23˜kDa), or Bcl -2 (26˜kDa) on x-ray film were scanned and densitometrically analyzed with a model GS-700 imaging densitometer (Bio-Rad Laboratories). […]
Background: A western blot detects proteins with antibodies after separation by electrophoresis.

Test [4] relates to Adult male CD1 mice. In words: Spinal cord injury (SCI): light microscopy, histological score, Luxol fast blue. The format is in vivo, mouse. The procedure: as §1, with “days.” for “days. Food and water were provided to the mice ad libitum.”
The segments of each spinal cord were evaluated by an experienced histopathologist (RO). Damaged neurons were counted and the histopathologic changes of the gray matter were scored on a 6-point scale (Sirin 2000): 0, no lesion observed, 1, gray matter contained 1 to 5 eosinophilic neurons; 2, gray matter contained 5 to 10 eosinophilic neurons; 3, gray matter contained more than 10 eosinophilic neurons; 4, small infarction (less than one third of the gray matter area); 5, moderate infarction; (one third to one half of the gray matter area); 6, large infarction (more than half of the gray matter area). […]

Test [5] has as its system Myeloperoxidase (MPO) activity. In words: SCI: myeloperoxidase activity (neutrophil infiltration). Format: in vivo, mouse. To be noted: SCI mice, 24 hours; dosing as E50; ICI 182,780 = co-administration with 17β-estradiol. On the procedure: Mice were anaesthetized using chloral hydrate (400 mg/kg body weight) (Genovese 2006). A longitudinal incision was made on the midline of the back, exposing the paravertebral muscles. These muscles were dissected away exposing T5-T8 vertebrae. The spinal cord was exposed via a four-level T6-T7 laminectomy and SCI was produced by extradural compression using an aneurysm clip with a closing force of 24 g. Following surgery, 1 ml of saline was administered subcutaneously in order to replace the blood volume lost during surgery. During the surgery and recovery from anesthesia, the mice were placed on a warm heating pad and covered with a warm towel. The mice were singly housed in a temperature-controlled room at 27° C. and survival was measured over a period of 10 days. Food and water were provided to the mice ad libitum. During this time period, the animals' bladders were manually voided twice a day until the mice were able to regain normal bladder function. In all injured groups, the spinal cord was compressed for 1 min. […] Myeloperoxidase (MPO) activity, an indicator of PMN accumulation, was determined as previously described (Mullane 1985) 24 h after SCI. […] The rate of change in absorbance was measured spectrophotometrically at 650 nm. MPO activity was defined as the quantity of enzyme degrading 1 μmol of peroxide per minute at 37° C. and was expressed in milliunits/g of wet tissue.

Where [6] appears, read: SCI mice, 24 hours, dosing as E50.
Setting [7] is: spinal cord, 24 hours after SCI.

Take `C[C@]12CC[C@@H]3c4ccc(O)cc4C[C@@H](CCCCCCCCC[S+]([O-])CCCC(F)(F)C(F)(F)F)[C@H]3[C@@H]1CC[C@@H]2O` (stereo partly drawn) [ICI 182,780]: in test [1], the “tissue levels of IL-1β (mRNA)” value is recorded as “significantly blocked the effect of the 17β-estradiol”, the “tissue levels of IL-6 (mRNA)” value is recorded as “significantly blocked the effect of the 17β-estradiol”, the “tissue levels of MCP-1 (mRNA)” value is listed as “significantly blocked the effect of the 17β-estradiol” and the “tissue levels of TNF-α (mRNA)” value is given as “significantly blocked the effect of the 17β-estradiol”. In test [2] (setting [6]), the “immunohistological staining for COX-2” value is “significantly blocked the effect of the 17β-estradiol on COX-2 expression”, the “immunohistological staining for iNOS” value is reported as “significantly blocked the effect of the 17β-estradiol on iNOS expression”, the “immunohistological staining for nitrotyrosine” value was “significantly blocked the effect of the 17β-estradiol” and the “staining for MPO” value was “significantly blocked the effect of the 17β-estradiol on the MPO”. In test [2] (setting [7]), the “immunohistological staining for Bax” value is reported as “significantly blocked the effect of the 17β-estradiol” and the “immunohistological staining for Bcl-2” value is given as “significantly blocked the effect of the 17β-estradiol”. Besides, in test [3], the “Bax expression (Western blot)” value is reported as “significantly blocked the effect of the 17β-estradiol on Bax expression” and the “Bcl-2 expression (Western blot)” value was “significantly blocked the effect of the 17β-estradiol on the Bcl2 expression”. Also, the “histological alteration of spinal cord (H&E, histological score)” value in test [4] (24 hours after injury, 17β-estradiol 300 μg/kg s.c. 1 h before, 3 h and 6 h after SCI, ICI 182,780 rows: 500 μg/kg s.c. 1 hour before 17β-estradiol (co-administration)) is listed as “significantly blocked the effect of the 17β-estradiol on the histological alteration”. The “myelin structure (Luxol fast blue staining)” value in test [4] (24 hours, dosing as E50, ICI 182,780 = co-administration with 17β-estradiol) is on record as “significantly blocked the effect of the 17β-estradiol”. In addition, the “MPO activity in the spinal cord (neutrophil infiltration)” value in test [5] is recorded as “significantly blocked the effect of the 17β-estradiol on the neutrophils infiltration”.
